Patent US4649911A, “Small particle aerosol generator for treatment of respiratory disease including the lungs” (Baylor College of Medicine, priority 1986, dated 1987)

Conditions: human, in vivo
Method: The following hematologic studies were performed at admission and at discharge from the hospital: hematocrit, red cell count, white cell count, differential white cell count, hemoglobin concentration and reticulocyte count. Biochemical tests as follows were performed on admission, at discharge, and one month later: indirect bilirubin, direct bilirubin, total bilirubin, blood urea nitrogen, creatinine, glucose, calcium, phosphorus, albumin, total protein, alkaline phcsphatase, serum aspartate transminase (ASP), and serum alanine transaminase (ALT), lactic dehydrogenase (LDH), creatine phosphokinase (CPK), uric acid, and aldolase.
Clinical chemical tests were performed on 14 treated and 17 control patients at admission; at discharge there were 13 treated and 15 controls, and at one month there were 11 and 17 sets of tests performed.

In the case of `NC(=O)c1ncn([C@@H]2O[C@H](CO)[C@@H](O)[C@H]2O)n1` [ribavirin], the absolute lymphocyte count is reported as “more than doubled”.
